# pIC50: −log10 of the molar value.
# Biological target: T1, full length active recombinant SYK enzyme (Homo sapiens, UniProt P43405)
# T1 construct: full length active recombinant SYK enzyme (Millipore, Calif.); purchased Millipore
# Test: Inhibition of Syk tyrosine phosphorylation activity (LANCE TR-FRET kinase assay)
# Type: biochemical
# Conditions: activity in the Syk assays, class symbols
# Outline: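 1 nM full-length active recombinant SYK phosphorylated 550 nM biotin-DEEDYESP-OH with 100 μM ATP in 50 mM Tris pH 7.5, 5 mM MgCl2, 1 mM DTT and 3% DMSO for 1 h at room temperature. After EDTA quench, Eu-anti-phosphotyrosine/SA-APC TR-FRET was read after 1 h. IC50s came from non-linear regression.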
row,pIC50,Structure (SMILES)
1,8.00 to 9.00,"NC(=O)c1ncc(N[C@@H]2CCCC[C@@H]2N)nc1Nc1cc(-n2ccnn2)cc(-n2ccnn2)c1 [Example 432, 5-(((1R,2S)-2-aminocyclohexyl)amino)-3-((3,5-di(1H-1,2,3-triazol-1-yl)phenyl)amino)pyrazine-2-carboxamide]"
2,8.00 to 9.00,"NC(=O)c1ncc(N[C@@H]2CCCC[C@@H]2N)nc1Nc1cnc2ccncc2c1 [Example 433, 3-((1,6-naphthyridin-3-yl)amino)-5-(((1R,2S)-2-aminocyclohexyl)amino)pyrazine-2-carboxamide]"
3,8.00 to 9.00,"NC(=O)c1ncc(N[C@@H]2CCCC[C@@H]2N)nc1Nc1cnc2scnc2c1 [Example 434, 5-(((1R,2S)-2-aminocyclohexyl)amino)-3-(thiazolo[5,4-b]pyridin-6-ylamino)pyrazine-2-carboxamide]"
4,8.00 to 9.00,"NC(=O)c1ncc(N[C@@H]2CCCC[C@@H]2N)nc1Nc1ccc2cccnc2c1 [Example 435, 5-(((1R,2S)-2-aminocyclohexyl)amino)-3-(quinolin-7-ylamino)pyrazine-2-carboxamide]"
5,> 9.00,"NC(=O)c1ncc(N[C@@H]2CCCC[C@@H]2N)nc1Nc1cccc2ncccc12 [Example 436, 5-(((1R,2S)-2-aminocyclohexyl)amino)-3-(quinolin-5-ylamino)pyrazine-2-carboxamide]"
6,8.00 to 9.00,"NC(=O)c1ncc(N[C@@H]2CCCC[C@@H]2N)nc1Nc1ccnc2ncccc12 [Example 437, 3-((1,8-naphthyridin-4-yl)amino)-5-(((1R,2S)-2-aminocyclohexyl)amino)pyrazine-2-carboxamide]"
7,8.00 to 9.00,"CCC(=O)N1CCC(c2ccc(Nc3nc(N[C@@H]4CCCC[C@@H]4N)cnc3C(N)=O)cc2)CC1 [Example 438, 5-(((1R,2S)-2-aminocyclohexyl)amino)-3-((4-(1-propionylpiperidin-4-yl)phenyl)amino)pyrazine-2-carboxamide]"
8,8.00 to 9.00,"NC(=O)c1ncc(N[C@@H]2CCCC[C@@H]2N)nc1Nc1ccc(N2CCOCC2)c(F)c1 [Example 439, 5-(((1R,2S)-2-aminocyclohexyl)amino)-3-((3-fluoro-4-morpholinophenyl)amino)pyrazine-2-carboxamide]"
9,7.00 to 8.00,"NC(=O)c1ncc(N[C@@H]2CCCC[C@@H]2N)nc1Nc1ccc(-n2ccccc2=O)cc1 [Example 440, 5-(((1R,2S)-2-aminocyclohexyl)amino)-3-((4-(2-oxopyridin-1(2H)-yl)phenyl)amino)pyrazine-2-carboxamide]"
10,7.00 to 8.00,"NC(=O)c1ncc(N[C@@H]2CCCC[C@@H]2N)nc1Nc1ccc(N2CCCCC2=O)cc1 [Example 441, 5-(((1R,2S)-2-aminocyclohexyl)amino)-3-((4-(2-oxopiperidin-1-yl)phenyl)amino)pyrazine-2-carboxamide]"
11,7.00 to 8.00,"NC(=O)c1ncc(N[C@@H]2CCCC[C@@H]2N)nc1Nc1ccc(N2CCOCC2=O)cc1 [Example 442, 5-(((1R,2S)-2-aminocyclohexyl)amino)-3-((4-(3-oxomorpholino)phenyl)amino)pyrazine-2-carboxamide]"
12,7.00 to 8.00,"NC(=O)c1ncc(N[C@@H]2CCCC[C@@H]2N)nc1Nc1ccc(N2CCOCC2=O)c(F)c1 [Example 443, 5-(((1R,2S)-2-aminocyclohexyl)amino)-3-((3-fluoro-4-(3-oxomorpholino)phenyl)amino)pyrazine-2-carboxamide]"
13,> 9.00,"NC(=O)c1ncc(N[C@@H]2CCCC[C@@H]2N)nc1Nc1cccc(-c2ncco2)c1 [Example 444, 5-(((1R,2S)-2-aminocyclohexyl)amino)-3-((3-(oxazol-2-yl)phenyl)amino)pyrazine-2-carboxamide]"
14,8.00 to 9.00,"NC(=O)c1ncc(N[C@@H]2CCCC[C@@H]2N)nc1Nc1ccc(-c2ncco2)cc1 [Example 445, 5-(((1R,2S)-2-aminocyclohexyl)amino)-3-((4-(oxazol-2-yl)phenyl)amino)pyrazine-2-carboxamide]"
15,8.00 to 9.00,CC[C@@H](Nc1cnc(C(N)=O)c(Nc2ccc(-c3ncco3)cc2)n1)C(N)=O [Example 446]
16,8.00 to 9.00,"NC(=O)c1ncc(N[C@@H]2CCCC(F)(F)[C@@H]2N)nc1Nc1cnn2ccccc12 [Example 447, 5-(((1R,2R)-2-amino-3,3-difluorocyclohexyl)amino)-3-(pyrazolo[1,5-a]pyridin-3-ylamino)pyrazine-2-carboxamide]"
17,8.00 to 9.00,"NC(=O)c1ncc(N[C@@H]2CCCC(F)(F)[C@@H]2N)nc1Nc1csc2ncccc12 [Example 448, 5-(((1R,2R)-2-amino-3,3-difluorocyclohexyl)amino)-3-(thieno[2,3-b]pyridin-3-ylamino)pyrazine-2-carboxamide]"
18,< 6.00,"NC(=O)c1ncc(N[C@@H]2CCCC[C@@H]2N)nc1Nc1cncs1 [Example 449, 5-(((1R,2S)-2-aminocyclohexyl)amino)-3-(thiazol-5-ylamino)pyrazine-2-carboxamide]"
19,7.00 to 8.00,"CC[C@@H](Nc1cnc(C(N)=O)c(Nc2cccc(-c3ncco3)c2)n1)C(N)=O [Example 450, (R)-5-((1-amino-1-oxobutan-2-yl)amino)-3-((3-(oxazol-2-yl)phenyl)amino)pyrazine-2-carboxamide]"
20,8.00 to 9.00,"NC(=O)c1ncc(N[C@@H]2CCCC(F)(F)[C@@H]2N)nc1Nc1ccc2c(c1)COCC2 [Example 451, 5-(((1R,2R)-2-amino-3,3-difluorocyclohexyl)amino)-3-(isochroman-7-ylamino)pyrazine-2-carboxamide]"
21,8.00 to 9.00,"NC(=O)c1ncc(N[C@@H]2CCCC(F)(F)[C@@H]2N)nc1Nc1ccc2c(c1)COC2 [Example 452, 5-(((1R,2R)-2-amino-3,3-difluorocyclohexyl)amino)-3-((1,3-dihydroisobenzofuran-5-yl)amino)pyrazine-2-carboxamide]"
22,8.00 to 9.00,"NC(=O)c1ncc(N[C@@H]2CCCC(F)(F)[C@@H]2N)nc1Nc1ccc2c(c1)CCOC2 [Example 453, 5-(((1R,2R)-2-amino-3,3-difluorocyclohexyl)amino)-3-(isochroman-6-ylamino)pyrazine-2-carboxamide]"
23,7.00 to 8.00,"NC(=O)c1ncc(N[C@@H]2CCCC(F)(F)[C@@H]2N)nc1Nc1ccc2c(c1)CCC2 [Example 454, 5-(((1R,2R)-2-amino-3,3-difluorocyclohexyl)amino)-3-((2,3-dihydro-1H-inden-5-yl)amino)pyrazine-2-carboxamide]"

# — patent US9359308B2, “Pyrazine kinase inhibitors” (Portola Pharmaceuticals, Inc., priority 2011, dated 2016)
